Measured values from patent publication US12458605B2, “Lipid nanoparticle” (National University Corporation Hokkaido University, priority 2020, dated 2025).

Tests used:
[1] = Average particle size (ζ-Average) and PDI by dynamic light scattering (Zetasizer Nano ZSP); assay type: physicochemical
Protocol: The average particle size (ζ-Average) and PDI in PBS(−) of lipid nanoparticles were measured using “Zetasizer Nano ZSP”, an analyzer utilizing dynamic light scattering (manufactured by Malvern).
Measurement of average particle size and PDI of the lipid nanoparticles were carried out with the same method as the measurement of average particle size of mRNA-LNP.
The average particle size (ζ-Average) and PDI in PBS (−) of lipid nanoparticles were measured using “Zetasizer Nano ZSP”, an analyzer utilizing dynamic light scattering (manufactured by Malvern).

spleen = assay: In vivo Fluc activity of FlucmRNA-loaded LNP by in vivo imaging, spleen; conditions: Balb/c mice, 6 hours; for Fluc Activity in spleen: FlucmRNA-loaded LNP i.v. 0.1 mg mRNA/kg
Protocol: (§1) Then, each prepared FlucmRNA-loaded lipid nanoparticles were administered to Balb/c mice (Charles River Laboratories Japan, Inc., 7 weeks old, female) and in vivo gene expression activity was examined. Specifically, each FlucmRNA-loaded lipid nanoparticles were intravenously administered to Balb/c mice at 0.1 mg mRNA/kg, and Fluc activities in the liver and spleen at 6 hours later were measured. Fluc activity was measured by in vivo imaging system (Perkin Elmer, IVIS200) after administration of VivoGlo Luciferin, In Vivo Grade (Promega, P1041) dissolved with PBS to 15 mg/mL, via tail vein at a dose of 1.5 mg per mouse. The unit of Fluc activity is the emission intensity per unit area (Avg Radiance [p/s/cm2/sr]) at the maximum emission wavelength of about 560 nm. The results of measurement of the Fluc activity (Avg Radiance [p/s/cm2/sr]) in the liver and spleen of mice administered each FlucmRNA-loaded lipid nanoparticles are shown in Tables 5-7.

[2] = Storage stability of FlucmRNA-loaded LNP at −80, 5, 25 and 40° C.; assay type: physicochemical; conditions: for period for which quality remained good, −80° C.: maximum storage period 1 week; for period for which quality remained good, 5° C. / period for which quality remained good, 25° C. / period for which quality remained good, 40° C. (weeks): maximum storage period 5 weeks
Protocol: Lipid nanoparticles were allowed to stand at each temperature of −80° C., 5° C., 25° C., and 40° C., and after keeping for each period of time, average particle size, PDI, and nucleic acid encapsulation rate were measured. Lipid nanoparticles which satisfy following all three conditions were defined that the quality was remained well: the average particle size is maintained within +/−20 nm based on the date of LNP preparation; PDI remains high uniformity with a value of 0.2 or less; and the nucleic acid encapsulation rate is also maintained at 80% or more. As a result of measuring average particle size, PDI, and nucleic acid encapsulation rate after each FlucmRNA-loaded lipid nanoparticle was allowed to stand at −80° C., 5° C., 25° C., and 40° C. respectively and kept for each period of time, periods of time defined as the quality of the lipid nanoparticles was remained well are shown in Tables 13 and 14. The lipid nanoparticles which remain in good quality with standing at 5° C. for one week or more can be evaluated as having excellent stability.

liver = assay: In vivo Fluc activity of FlucmRNA-loaded LNP by in vivo imaging, liver; conditions: Balb/c mice, 6 hours; for Fluc Activity in liver: FlucmRNA-loaded LNP i.v. 0.1 mg mRNA/kg
Protocol: as §1

[3] = siRNA/mRNA encapsulation rate by Ribogreen reagent (section IV); assay type: physicochemical; conditions: for % siRNA encapsulation: F7siRNA-loaded LNP, 50:10:38.5:1.5, N/P ratio 6; for % mRNA encapsulation: FlucmRNA-loaded LNP, 50:10:38.5:1.5
Protocol: The encapsulation rates of siRNA and mRNA of lipid nanoparticles were measured with Ribogreen reagent. A solution diluted with TE buffer solution was arranged so that lipid nanoparticle concentration as nucleic acid concentration to be 8 μg/mL, as a solution for measuring nanoparticle surface nucleic acid concentration. In addition, a solution for measuring total nucleic acid concentration was arranged so that lipid nanoparticle concentration as nucleic acid concentration to be 1.2 μg/mL, which is 1% (w/w) concentration of X-triton100, by adding X-triton100. For 100 μL of each solution, 100 μL of Ribogreen (registered trademark) reagent (Quant-iT™ RiboGreen™ RNA Reagent, manufactured by Thermofisher Scientific) was mixed well in the wells of 96-well microplate (black, made of polystyrene, flat bottom, manufactured by Corning), and the fluorescence intensity at an excitation wavelength of 485 nm and a measurement wavelength of 528 nm was measured with a microplate reader. Nucleic acid concentration was calculated by calibration curve created by measuring the fluorescence intensity of nucleic acid solution containing 1% X-triton100 (nucleic acid concentration: 0-2.5 μg/mL) as same as aforementioned. Nucleic acid encapsulation rate of each lipid nanoparticle was calculated by the following formula: Encapsulation rate %=(nucleic acid concentration in solution for measuring total nucleic acid concentration (μg/mL)−nucleic acid concentration in solution for measuring nanoparticle surface nucleic acid concentration (μg/mL))/nucleic acid concentration in solution for measuring total nucleic acid concentration (μg/mL)×100. <Results>
The encapsulation rate of mRNA of lipid nanoparticles was measured using Ribogreen (manufactured by life technologies).

F7 = assay: In vivo F7 knockdown, plasma F7 enzyme activity (BIOPHEN FVII), Balb/c mice; conditions: for F7 enzyme activity (Ratio using MC3 as 1): relative plasma F7 activity of MC3 LNP as 1; for knockdown activity, compared with MC3: F7siRNA-loaded LNP, versus LNP comprising MC3
Protocol: Then, each prepared F7siRNA-loaded lipid nanoparticles were administered to Balb/c mice (Charles River Laboratories Japan, Inc., 5 weeks old, female) and in vivo F7 knockdown activity was examined. Specifically, BALB/c mice were intravenously administered F7siRNA-loaded lipid nanoparticles comprising the lipids described in Table 9 at 0.025 mg siRNA/kg and F7siRNA-loaded lipid nanoparticles comprising the lipids described in Tables 10 and 11 at 0.025 mg siRNA/kg, and the plasma F7 enzyme activity at 24 hours later was measured using BIOPHEN FVII (Biophen, A221304). Relative plasma F7 enzyme activity (%) of mice administered each F7siRNA-loaded lipid nanoparticles was calculated using plasma F7 enzyme activity of untreated mice as 100%. Furthermore, the ratio was calculated using the relative plasma F7 enzyme activity (%) of mice administered MC3-comprising F7siRNA-loaded lipid nanoparticles as 1. The results of measurement of CL4F6 derivative nanoparticles are shown in Tables 9 and 10, and results of measurement of CL15F6 derivative nanoparticles in Table 11.

[4] = F7siRNA-loaded LNP, 50:10:38.5:1.5, N/P ratio 6
[5] = FlucmRNA-loaded LNP, 50:10:38.5:1.5
[6] = FlucmRNA-loaded LNP, lipid:DSPC:cholesterol:DMG-PEG2K 50:10:38.5:1.5
[7] = i.v. 0.025 mg siRNA/kg, plasma at 24 hours
[8] = 0.1 mg mRNA/kg, versus LNP comprising CL15F6 (Table 7)

Row | SMILES | PDI [1, 4] | ζ-Average (nm) [1, 4] [nm] | PDI [1, 5] | ζ-Average (nm) [1, 6] [nm] | Fluc Activity in spleen (spleen) | period for which quality remained good, −80° C. [2] [week] | period for which quality remained good, 5° C. [2] [weeks] | period for which quality remained good, 25° C. [2] [weeks] | period for which quality remained good, 40° C. (weeks) [2] | Fluc Activity in liver (liver) | % siRNA encapsulation [3] [%] | % mRNA encapsulation [3] [%] | F7 enzyme activity (Ratio using MC3 as 1) (F7; [7]) | knockdown activity, compared with MC3 (F7) | Fluc activity in the spleen, compared with CL15F6 (spleen; [8]) | Fluc activity in the liver, compared with CL15F6 (liver; [8]) | F7 enzyme activity (%) (F7; i.v. 0.025 mg siRNA/kg, plasma at 24 hours, untreated mice as 100%)
1 | CCCCCCC(CCCCCC)C(=O)OCCCCCCC(O)(CCCCCCOC(=O)C(CCCCCC)CCCCCC)CCCCOC(=O)C1CCN(C)CC1 [CL15F 8-6] | 0.056 | 121.2 | 0.011 | 132.00 | 5.02E+06 Avg Radiance [p/s/cm2/sr] | 1 | 5 | 5 | 5 weeks | 1.92E+06 Avg Radiance [p/s/cm2/sr] | 100.2 | 99.2 | 1.60 |  |  |  | 
2 | CCCCCCCCCCC(CCCC)C(=O)OCCCCCCC(O)(CCCCCCOC(=O)C(CCCC)CCCCCCCCCC)CCCCOC(=O)C1CCN(C)CC1 (centres unmarked) [CL15F 12-4] | 0.065 | 113.2 | 0.009 | 116.60 | 5.10E+06 Avg Radiance [p/s/cm2/sr] | 1 | 5 | 5 | 5 weeks | 2.87E+06 Avg Radiance [p/s/cm2/sr] | 100.2 | 99.7 | 0.81 | higher knockdown activity |  |  | 
3 | CCCCCCCCC(CCCCCCCC)C(=O)OCCCCCCC(O)(CCCCCCOC(=O)C(CCCCCCCC)CCCCCCCC)CCCCOC(=O)C1CCN(C)CC1 [CL15F 10-8] | 0.041 | 99.44 | 0.026 | 99.84 | 8.42E+06 Avg Radiance [p/s/cm2/sr] | 1 | 5 | 5 | 5 weeks | 1.35E+07 Avg Radiance [p/s/cm2/sr] | 100.6 | 99.78 | 0.52 | higher knockdown activity | higher Fluc activity | higher Fluc activity | 
4 | CCCCCCCCCC(CCCCC)C(=O)OCCCCCCC(O)(CCCCCCOC(=O)C(CCCCC)CCCCCCCCC)CCCCN(CCC)CCC (centres unmarked) [CL4F 11-5] | 0.012 | 89.72 | 0.019 | 81.81 | 1.03E+06 Avg Radiance [p/s/cm2/sr] | 1 | 5 | 5 | 1 week weeks | 4.50E+07 Avg Radiance [p/s/cm2/sr] | 100.1 | 99.6 |  |  |  |  | 4.3
